In US12582649B2, “Compositions and methods for hair follicle regeneration” (Washington University, priority 2020, dated 2026):
“Also recorded” adds a separate entry of the source.

Legend:
ERK1/2 = ERK1/2 phosphorylation in skin (western blot, immunofluorescence); assay type: in vivo, mice; conditions: for effect of pretreatment on GSK1016790A-induced ERK1/2 phosphorylation: intraperitoneal pretreatment one hour before GSK1016790A, skin harvested 15 min after
Experimental: (§1) The second telogen of C57BL/6J mice starts at day 49 after birth and it will last around 5 weeks (Muller-Rover et al., 2001). On day 48 after birth, the mice were shaved. On day 49 after birth, wt and Trpv4^−/− mice were intradermally injected with 30-μM GSK1016790A (GSK101, a selective TRPV4 agonist) (50 μl), which is diluted in saline from the 100 mM stock solution. GSK2193874 (GSK219, a selective TRPV4 antagonist) (25 mg·kg^−1, 200 μl dilution in saline from 50 mg·ml^−1 stock solution) (Thorneloe et al., 2012) or PD98059 (10 mg·kg^−1, 200 μl dilution in saline from 37.5 mg·ml^−1 stock solution) was applied through intraperitoneal injection on day 48 after birth or 1 hour prior to GSK1016790A injection. Insulin syringes with 30-G needle (UltiCare) were used for intradermal injection and 1-ml Sub-Q syringes with 26-G needle (BD) were used for intraperitoneal injection. […] In mice with newly generated hair, generally, there was a small patch of skin with dark color and longer hair shaft at the injection sites compared with that in the surrounding area.
(§2) Dorsal skin samples were fixed overnight at 4° C. in Zamboni's fixative (2% paraformaldehyde, 15% [v/v] saturated picric acid, 0.1-M PB, pH 7.3), dehydrated in ethanol, embedded in paraffin and sectioned at 10 μm. Haematoxylin and eosin (H&E) staining was performed according to standard protocols to analyze the hair follicle cycle stages as described, including the length of the hair follicle, the size, and location of dermal papilla and the position of the hair shaft and the inner root sheath (Muller-Rover et al., 2001). For immunofluorescence detection, sections were deparaffinized, rehydrated, and subjected to antigen retrieval in 10-mM citrate buffer (pH 6.0). […]
The skin was lysed in RIPA lysis and extraction buffer (Thermo Fisher Scientific, USA). Following cell protein quantitation, 10 μg of protein per sample were subjected to 12% SDS-PAGE. […]

[1] = system: human epidermal keratinocytes HaCaT cells; conditions: cited from earlier work
[2] = system: cultured human hair follicles; conditions: cultured human hair follicles ex vivo; cited from earlier work
hair follicles [3] = assay: Topical application on tape-stripped shaved back skin, hair growth; assay type: in vivo, mice
From the text: FIG. 10. […] Images were taken on day 12 after GSK101 treatment.
A TRPV4-dependent increase in hair growth was observed (FIG. 10).
Tape stripping was used to remove the stratum corneum to facilitate GSK101 entry into the skin. The agent can be applied with no additional agent or skin treatment method. The effect was removed by genetic ablation of the TRPV4 function.

[4] = system: Bmp6, Fgf18, Fgf7, Wnt16 and Nog mRNA; assay: Quantitative RT-PCR of whole skin lysates for anagen-inhibiting and anagen-promoting factors; assay type: in vivo, mice
Experimental: (§3) The second telogen of C57BL/6J mice starts at day 49 after birth and it will last around 5 weeks (Muller-Rover et al., 2001). On day 48 after birth, the mice were shaved. On day 49 after birth, wt and Trpv4^−/− mice were intradermally injected with 30-μM GSK1016790A (GSK101, a selective TRPV4 agonist) (50 μl), which is diluted in saline from the 100 mM stock solution. GSK2193874 (GSK219, a selective TRPV4 antagonist) (25 mg·kg^−1, 200 μl dilution in saline from 50 mg·ml^−1 stock solution) (Thorneloe et al., 2012) or PD98059 (10 mg·kg^−1, 200 μl dilution in saline from 37.5 mg·ml^−1 stock solution) was applied through intraperitoneal injection on day 48 after birth or 1 hour prior to GSK1016790A injection. Insulin syringes with 30-G needle (UltiCare) were used for intradermal injection and 1-ml Sub-Q syringes with 26-G needle (BD) were used for intraperitoneal injection. Seventeen days after GSK1016790A injection, the mice were killed and the skin samples of the injection area were collected for analysis. In mice with newly generated hair, generally, there was a small patch of skin with dark color and longer hair shaft at the injection sites compared with that in the surrounding area.
For real-time PCR, skin sample was collected 24 h after GSK1016790A injection. Total RNA was extracted from mouse skin tissue using RNeasy kit (Qiagen, Germantown, MD, […]) according to the manufacturer's instructions. RNA was treated with DNase I (Invitrogen, Carlsbad, CA, USA), and the cDNA was synthesized in vitro using ThermoScript® RT-PCR System kit (Invitrogen). Reactions were carried out in a volume of 20 μl per reaction containing 10-μl SYBR Green master mix (2×) (Roche, Indianapolis, IN, USA), 0.5-μl cDNA, 1.2-μl 5-μM primer mix, and 8.3-μl water using StepOnePlus real-time PCR system (Applied Biosystems, Foster City, CA, USA). Relative expression of genes was normalized to GAPDH and calculated using the 2^−ΔΔct methods.

[5] = system: hair follicle keratinocytes; assay: Ki67 immunofluorescence staining of back skin sections (proliferation of hair follicle keratinocytes and stem cells); assay type: in vivo; conditions: Trpv4+/+ mice, 48 h after single intradermal injection, vs vehicle
Experimental: as §1
Dorsal skin samples were fixed overnight at 4° C. in Zamboni's fixative (2% paraformaldehyde, 15% [v/v] saturated picric acid, 0.1-M PB, pH 7.3), dehydrated in ethanol, embedded in paraffin and sectioned at 10 μm. […]

hair follicles [6] = assay: Hair follicle regeneration / new hair growth after a single intradermal injection in telogen back skin; assay type: in vivo, mice
Experimental: as §3
Dorsal skin samples were fixed overnight at 4° C. in Zamboni's fixative (2% paraformaldehyde, 15% [v/v] saturated picric acid, 0.1-M PB, pH 7.3), dehydrated in ethanol, embedded in paraffin and sectioned at 10 μm. Haematoxylin and eosin (H&E) staining was performed according to standard protocols to analyze the hair follicle cycle stages as described, including the length of the hair follicle, the size, and location of dermal papilla and the position of the hair shaft and the inner root sheath (Muller-Rover et al., 2001). For immunofluorescence detection, sections were deparaffinized, rehydrated, and subjected to antigen retrieval in 10-mM citrate buffer (pH 6.0). After blocking, sections were stained with primary antibody against Ki67 (1:1,000; Thermo Fisher Scientific, Cat #PA1-29503, RRID: AB_1955602), phosphop-p44/42 MAPK (1:200; Cell Signaling Technology, Cat #4370S, RRID: AB_2315112), p44/42 MAPK (1:1,000; Cell Signaling Technology, Cat #4695, RRID: AB_390779), keratin 14 (1:1,000; BioLegend, […], RRID: AB_2616962) and keratin 15 (1:1,000; BioLegend, Cat #833901, RRID: AB_2564970) at 4° C. overnight in a humid chamber, followed by incubation for 1 h at room temperature (RT) with Cy3-conjugated secondary antibody (1:500; Jackson ImmunoResearch, Cat #111-005-003, RRID: AB_2337913) and Alexa Fluor 488-conjugated secondary antibody (1:500; Jackson ImmunoResearch, Cat #703-005-155, RRID: AB_2340346). Nuclei were stained with DAPI (SouthernBiotech). The Immuno-related procedures used comply with the recommendations made by the British Journal of Pharmacology Alexander et al., 2018.

TRPV4 = molecular target: T1, TRPV4 (Mus musculus, UniProt Q9EPK8); assay: Normal hair follicle cycling under pharmacological inhibition of TRPV4 (H&E of back skin); assay type: in vivo; conditions: Trpv4+/+ mice treated with GSK219
T1 construct: back skin sections from Trpv4^+/+ mice, Trpv4^+/+ mice treated with GSK219 and Trpv4^−/− mice; from tissue; host or cells: back skin of living wild-type C57BL/6J (Trpv4+/+) mice
Experimental: FIG. 6. Top: hair growth cycle in mice. Bottom: representative images of hematoxylin and eosin (H&E) staining of back skin sections from Trpv4^+/+ mice, Trpv4^+/+ mice treated with GSK219 and Trpv4^−/− mice on Day 15, 21, 36, 40, 49. Scale bar=100 μm.
as §2

[7] = Cre+ K14Cre, Trpv4f/f mice vs wt
[8] = Cre+ K14Cre, Trpv4f/f mice, after injection
[9] = Trpv4+/+ mice, whole skin, 24 h after injection

T1 sequence (Q9EPK8 whole entry): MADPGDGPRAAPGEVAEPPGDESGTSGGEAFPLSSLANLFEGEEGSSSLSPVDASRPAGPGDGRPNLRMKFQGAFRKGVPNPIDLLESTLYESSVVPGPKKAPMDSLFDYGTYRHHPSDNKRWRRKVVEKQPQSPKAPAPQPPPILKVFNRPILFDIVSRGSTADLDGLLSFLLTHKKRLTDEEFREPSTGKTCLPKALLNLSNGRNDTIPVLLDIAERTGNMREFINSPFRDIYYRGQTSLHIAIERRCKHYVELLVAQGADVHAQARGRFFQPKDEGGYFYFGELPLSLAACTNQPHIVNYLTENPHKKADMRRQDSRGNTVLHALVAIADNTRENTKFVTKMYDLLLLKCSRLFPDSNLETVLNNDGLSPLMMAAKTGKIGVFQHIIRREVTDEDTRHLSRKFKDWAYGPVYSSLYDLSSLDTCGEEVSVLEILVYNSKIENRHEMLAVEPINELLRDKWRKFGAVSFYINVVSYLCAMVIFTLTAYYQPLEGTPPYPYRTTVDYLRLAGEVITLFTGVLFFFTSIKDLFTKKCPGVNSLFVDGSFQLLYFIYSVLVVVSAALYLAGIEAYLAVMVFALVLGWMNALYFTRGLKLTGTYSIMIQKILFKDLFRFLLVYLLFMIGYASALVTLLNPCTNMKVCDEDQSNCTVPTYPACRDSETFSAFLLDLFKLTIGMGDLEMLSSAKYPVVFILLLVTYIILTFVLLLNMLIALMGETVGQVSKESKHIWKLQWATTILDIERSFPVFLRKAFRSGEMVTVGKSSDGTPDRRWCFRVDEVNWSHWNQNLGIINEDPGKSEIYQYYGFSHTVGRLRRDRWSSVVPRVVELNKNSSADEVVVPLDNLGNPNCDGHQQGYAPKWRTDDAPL

For `CC(C)C[C@H](NC(=O)c1cc2ccccc2s1)C(=O)N1CCN(C(=O)[C@H](CO)NS(=O)(=O)c2ccc(Cl)cc2Cl)CC1` [GSK1016790A, N-((1S)-1-{[4-((2S)-2-{[(2,4-dichlorophenyl)sulfonyl]amino}-3-hydroxypropanoyl)-1-piperazinyl]carbonyl}-3-methylbutyl)-1-benzothiophene-2-carboxamide], the ERK1/2 phosphorylation (ERK1/2; 15 min after a single intradermal injection, skin at injection site) is given as “significantly increased”, the membrane currents ([1]; HaCaT cells (PMID: 29293584)) is given as “activated membrane currents” and the IL-6 production ([1]; HaCaT cells (PMID: 30022772)) is given as “induced”. For the same compound, the IL-8 production ([1]; HaCaT cells (PMID: 30022772)) was “induced”, the “number of apoptotic cells” value [2] was “increased” and the “ratio of proliferating cells” value [2] was “decreased”. For the same compound, the “hair growth after topical application” value (hair follicles [3]; 100 μM applied once, tape stripping of shaved back, day 12, vs vehicle) was “facilitate hair growth; also recorded: increased hair growth”, the “hair growth effect of topical application under genetic ablation of TRPV4 function” value (hair follicles [3]; TRPV4 ablated mice, tape stripping) was “removed” and the “Bmp6 mRNA expression level” value ([4]; Cre+ K14Cre, Trpv4f/f mice) was “did not affect”. For the same compound, the “Fgf18 mRNA expression level” value ([4]; Cre+ K14Cre, Trpv4f/f mice) was “did not affect”, the “Fgf7 expression compared with wt mice injected with GSK1016790A” value [4, 7] was “significantly decreased” and the “Nog expression compared with wt mice injected with GSK1016790A” value [4, 7] was “significantly decreased”. For the same compound, the “Wnt16 expression compared with wt mice injected with GSK1016790A” value [4, 7] was “significantly decreased”, the Fgf7 expression [4, 8] was “still increased” and the Nog expression [4, 8] was “still increased”. For the same compound, the Wnt16 expression [4, 8] was “still increased”, the “Bmp6 mRNA transcripts” value [4, 9] was “significant decrease” and the “Fgf7 mRNA transcripts” value [4, 9] was “markedly increased”. For the same compound, the “Fgf18 mRNA transcripts” value [4, 9] was “significant decrease”, the “Nog mRNA transcripts” value [4, 9] was “markedly increased” and the “Wnt16 mRNA transcripts” value [4, 9] was “markedly increased”. For the same compound, the “GSK1016790A-induced changes in Bmp6, Fgf18, Fgf7, Wnt16 and Nog expression under genetic ablation of TRPV4” value ([4]; Trpv4−/− mice, 30 μM intradermal, 24 h) was “significantly attenuated”, the “number of Ki67-positive K14-expressing hair follicle keratinocytes” value [5] was “significantly increased; also recorded: increase” and the “number of Ki67-positive K15-expressing hair follicle stem cells in the bulge” value [5] was “increased number; also recorded: increase”. For the same compound, the “new hair growth (newly generated hair coat) at the injection site” value (hair follicles [6]; 7-week-old wt (Trpv4+/+) mice, single intradermal injection (30 μM, 50 μl), 17 days after injection, vs vehicle) was “newly generated hair coat could be clearly observed at the injection site in a dose-dependent manner; also recorded: persistently induced hair growth”, the “hair regeneration in macrophage-specific TRPV4 conditional KO mice” value (hair follicles [6]; Cx3cr1Cre, Trpv4f/f mice vs Cre− wt littermates, single intradermal injection) was “comparable hair regeneration” and the “hair regeneration in keratinocyte-specific TRPV4 conditional KO mice” value (hair follicles [6]; K14Cre, Trpv4f/f mice, single intradermal injection) was “completely absent”. For the same compound, the “GSK1016790A-induced hair regeneration in global TRPV4 KO mice” value (hair follicles [6]; Trpv4−/− mice, single intradermal injection) was “completely absent”, the “hair follicle elongation (hair follicle length)” value (hair follicles [6]; wt mice, single intradermal injection, H&E of back skin, vs vehicle) was “more than fourfold” and the “hair cycle stage of hair follicles” value (hair follicles [6]; wt mice, single intradermal injection, vehicle: telogen or anagen I) was “most of the hair follicles had entered anagen Ill-VI phases”.

With `O=C(NC1(c2ccccc2)CC1)c1c(CN2CCC(N3CCCCC3)CC2)c(-c2cccc(C(F)(F)F)c2)nc2cc(Br)ccc12` [GSK2193874] the “effect of pretreatment on GSK1016790A-induced ERK1/2 phosphorylation” value (ERK1/2) was “severely attenuated”, the “normal transition of first telogen to second anagen” value (TRPV4) was “no effect” and the “effect of pretreatment on GSK1016790A-induced changes in Bmp6, Fgf18, Fgf7, Wnt16 and Nog expression” value ([4]; GSK2193874 pretreatment, Trpv4+/+ mice) was “significantly attenuated”. The “effect of pretreatment on GSK1016790A-induced hair regeneration” value (hair follicles [6]; GSK2193874 25 mg·kg−1 intraperitoneal pretreatment, wt mice) was “completely abolished”.

In the case of `COc1cccc(-c2cc(=O)c3ccccc3o2)c1N` [PD98059], the “effect of pretreatment on GSK1016790A-induced ERK1/2 phosphorylation” value (ERK1/2) is reported as “severely attenuated”, the “effect of pretreatment on GSK1016790A-induced decrease of Bmp6 and Fgf18 and increase of Fgf7, Wnt16 and Nog expression” value ([4]; PD98059 pretreatment vs vehicle control) is reported as “completely reversed” and the “hair growth after GSK1016790A injection in pretreated mice” value (hair follicles [6]; PD98059 10 mg·kg−1 intraperitoneal pretreatment, 17 days after GSK1016790A injection) is reported as “completely absent”.
